System: purified T-cells
Assay: CD3ζ expression in stimulated purified T-cell cultures with H. pylori sonicate
Format: cell-based, human
Conditions: sonicate 20 μg/ml, L-arginine 400 μM
Protocol: After isolating peripheral blood mononuclear cells by Ficoll-Paque Plus (Amersham Pharmacia Biotech; Piscataway, N.J.), T-cells were purified by negative selection by using an affinity column (R & D Systems; Minneapolis, Minn.). The purity was always >90% T-cells as measured by the expression of CD3ε. H. pylori extracts or live H. pylori have no effect on resting T-cells, therefore T-cells were stimulated by cross linking anti-CD3 plus anti-CD28 as follows: 24 well plates were coated with 0.3 ml of goat-anti mouse (GAM) (Kirkegaard & Perry Laboratories; Gaithersburg, Md.) at 10 μg/ml in HBSS for 1 h. After washing twice with Hank's balanced salt solution (HBSS), 0.5×10^6 of purified T-cells were added per well in 1 ml of RPMI without L-arginine containing 1 μg/ml of anti-human CD3 (Ortho Diagnostics, Raritan, N.J.) and 100 ng/ml of anti-human CD28 (Becton-Dickinson) and cultured for 24 h. After this time L-arginine was added to the wells to give a final concentration of 0.4 mM. H. pylori sonicate (20 μg/ml) from either the wild type strain ATCC 43504 or its rocF (−) isogenic mutant was also added to the wells. After 24 h under these conditions, the cells were recovered and stained for CD3ζ. Six different donors were tested. […]

N=C(N)NCCC[C@H](N)C(=O)O [L-arginine]
CD3ζ expression in stimulated T-cells: recovered CD3ζ expression

Reference: patent US20040057926A1, “Modulation of the immune response through the manipulation of arginine levels” (LSU Medical Center, priority 2002, published 2004)
